Activity calls are given as the source filed them. The rule behind the calls is not given here.
Legend:
[1] = test system: von Hippel-Lindau disease tumor suppressor/Epidermal growth factor receptor (Homo sapiens), P00533+P40337 [L858R,T790M]; experiment: PROTAC activity at VHL/EGFR L858R/T790M mutant in human NCI-H1975 cells assessed as induction of EGFR degradation at 2 uM by Western blot analysis; format: cell-based; details: TDE = time-dependent effect
[2] = Cmax in SPF ICR mouse at 2 mg/kg,iv measured upto 24 hrs by LC-MS/MS analysis; format: ADME, organism-based; details: in vivo
[3] = test system: A549; experiment: Antiproliferative activity against human A549 cells harboring EGFR wild type assessed as inhibition of cell growth incubated for 48 to 72 hrs by CCK-8 assay; format: functional, cell-based
[4] = Tmax in SPF ICR mouse at 2 mg/kg,iv measured upto 24 hrs by LC-MS/MS analysis; format: ADME, organism-based; details: in vivo
[5] = Metabolic stability in rat liver microsomes assessed as half-life at 1 uM incubated upto 60 mins in presence of NADPH by LC-MS/MS analysis; format: ADME, Microsome
[6] = test system: von Hippel-Lindau disease tumor suppressor/Epidermal growth factor receptor (Homo sapiens), P00533+P40337 [L858R,T790M]; experiment: PROTAC activity at VHL/EGFR L858R/T790M mutant in human NCI-H1975 cells assessed as maximal EGFR degradation at 0.07 to 5 uM incubated for 72 hrs by Western blot analysis relative to control; format: cell-based; details: dose 0.07-5 µM
[7] = test system: von Hippel-Lindau disease tumor suppressor/Epidermal growth factor receptor (Homo sapiens), P00533+P40337 [UNDEFINED MUTATION]; experiment: PROTAC activity at VHL/EGFR Del19 mutant in human HCC827 cells assessed as induction of EGFR degradation at 100 nM preincubated with MG-132 for 6 hrs followed by compound treatment for 48 hrs by Western blot analysis; format: cell-based
[8] = AUC (0 to t) in SPF ICR mouse at 5 mg/kg,ip measured upto 24 hrs by LC-MS/MS analysis; format: ADME, organism-based; details: in vivo
[9] = Antitumor activity against human H1975-TM cells xenografted in BALB/c mouse assessed as tumor growth inhibition at 5 mg/kg,ip once daily for 14 days relative to control; format: functional; details: 336 h, time 14 day, read-out: TGI
[10] = Metabolic stability in human liver microsomes assessed as elimination rate constant at 1 uM incubated upto 60 mins in presence of NADPH by LC-MS/MS analysis; format: ADME, Microsome
[11] = test system: von Hippel-Lindau disease tumor suppressor/Epidermal growth factor receptor (Homo sapiens), P00533+P40337 [L858R,T790M]; experiment: PROTAC activity at VHL/EGFR L858R/T790M mutant in human NCI-H1975 cells assessed as induction of EGFR degradation at 100 nM preincubated with MLN-4924 for 6 hrs followed by compound treatment for 48 hrs by Western blot analysis; format: cell-based
[12] = test system: von Hippel-Lindau disease tumor suppressor/Epidermal growth factor receptor (Homo sapiens), P00533+P40337 [UNDEFINED MUTATION]; experiment: PROTAC activity at VHL/EGFR Del19 mutant in human HCC827 cells assessed as downregulation of ERK phosphorylation incubated for 72 hrs by Western blot analysis; format: cell-based
[13] = test system: A-431; experiment: Antiproliferative activity against human A-431 cells harboring EGFR wild type assessed as inhibition of cell growth incubated for 48 to 72 hrs by CCK-8 assay; format: functional, cell-based
[14] = AUC (0 to infinity) in SPF ICR mouse at 2 mg/kg,iv measured upto 24 hrs by LC-MS/MS analysis; format: ADME, organism-based; details: in vivo
[15] = test system: NCI-H1975; experiment: Antiproliferative activity against human NCI-H1975 cells harboring EGFR L858R/T790M double mutant assessed as inhibition of cell growth incubated for 48 to 72 hrs by CCK-8 assay; format: functional, cell-based
[16] = Metabolic stability in dog liver microsomes assessed as intrinsic clearance at 1 uM incubated upto 60 mins in presence of NADPH by LC-MS/MS analysis; format: ADME, Canis lupus familiaris, Microsome; details: read-out: CLH
[17] = test system: von Hippel-Lindau disease tumor suppressor/Epidermal growth factor receptor (Homo sapiens), P00533+P40337 [L858R,T790M]; experiment: PROTAC activity at VHL/EGFR L858R/T790M mutant in human NCI-H1975 cells assessed as downregulation of EGFR phosphorylation incubated for 72 hrs by Western blot analysis; format: cell-based
[18] = Metabolic stability in human liver microsomes assessed as half-life at 1 uM incubated upto 60 mins in presence of NADPH by LC-MS/MS analysis; format: ADME, Microsome
[19] = test system: HCC827; experiment: Antitumor activity against human HCC827 cells xenografted in BALB/c mouse assessed as tumor growth inhibition at 5 mg/kg,ip once daily for 28 days relative to control; format: functional; details: HCC827, 672 h, time 28 day, read-out: TGI
[20] = MRT (0 to t) in SPF ICR mouse at 2 mg/kg,iv measured upto 24 hrs by LC-MS/MS analysis; format: ADME, organism-based; details: in vivo
[21] = test system: von Hippel-Lindau disease tumor suppressor/Epidermal growth factor receptor (Homo sapiens), P00533+P40337 [L858R,T790M,C797S]; experiment: PROTAC activity at VHL/EGFR L858R/T790M/C797S mutant in human H1975-TM cells assessed as induction of EGFR degradation at 2.5 uM Western blot analysis; format: cell-based; details: TDE = time-dependent effect
[22] = Tmax in SPF ICR mouse at 5 mg/kg,ip measured upto 24 hrs by LC-MS/MS analysis; format: ADME, organism-based; details: in vivo
[23] = MRT (0 to infinity) in SPF ICR mouse at 5 mg/kg,ip measured upto 24 hrs by LC-MS/MS analysis; format: ADME, organism-based; details: in vivo
[24] = biological target: von Hippel-Lindau disease tumor suppressor/Epidermal growth factor receptor (Homo sapiens, UniProt P00533+P40337, T790M/L858R); experiment: PROTAC activity at VHL/EGFR L858R/T790M mutant in human NCI-H1975 cells assessed as induction of EGFR degradation incubated for 72 hrs by Western blot analysis; format: cell-based
[25] = Antitumor activity against human H1975-TM cells xenografted in BALB/c mouse assessed as tumor growth inhibition at 10 mg/kg,ip once daily for 14 days relative to control; format: functional; details: 336 h, time 14 day, read-out: TGI
[26] = Cmax in SPF ICR mouse at 5 mg/kg,ip measured upto 24 hrs by LC-MS/MS analysis; format: ADME, organism-based; details: in vivo
[27] = MRT (0 to infinity) in SPF ICR mouse at 2 mg/kg,iv measured upto 24 hrs by LC-MS/MS analysis; format: ADME, organism-based; details: in vivo
[28] = test system: H1975-TM; experiment: Antitumor activity against human H1975-TM cells xenografted in BALB/c mouse assessed as downregulation of AKT phosphorylation in tumor at 5 to 20 mg/kg,ip once daily for 14 days by Western blot analysis; format: functional, organism-based; details: dose 5-20 mg/kg, time 14.0 day
[29] = test system: H1975-TM; experiment: Antitumor activity against human H1975-TM cells xenografted in BALB/c mouse assessed as downregulation of EGFR phosphorylation in tumor at 5 to 20 mg/kg,ip once daily for 14 days by Western blot analysis; format: functional, organism-based; details: dose 5-20 mg/kg, time 14.0 day
[30] = Metabolic stability in rat liver microsomes assessed as intrinsic clearance at 1 uM incubated upto 60 mins in presence of NADPH by LC-MS/MS analysis; format: ADME, Microsome; details: read-out: CLH
[31] = test system: von Hippel-Lindau disease tumor suppressor/Epidermal growth factor receptor (Homo sapiens), P00533+P40337 [L858R,T790M]; experiment: PROTAC activity at VHL/EGFR L858R/T790M mutant in human NCI-H1975 cells assessed as induction of EGFR degradation at 2 uM incubated for 8 hr by Western blot analysis; format: cell-based
[32] = AUC (0 to infinity) in SPF ICR mouse at 5 mg/kg,ip measured upto 24 hrs by LC-MS/MS analysis; format: ADME, organism-based; details: in vivo

Structure (SMILES): CCN(CC)C/C=C/C(=O)Nc1cc2c(Nc3ccc(F)c(Cl)c3)ncnc2cc1OCc1cn(CCCCCCCC(=O)N[C@H](C(=O)N2C[C@H](O)C[C@H]2C(=O)N[C@H](C)c2ccc(-c3scnc3C)cc2)C(C)(C)C)nn1
- Activity [1]: Tde
- Cmax [2]: 7830 ng/mL
- IC50 [3]: > 20000 nM
- Tmax [4]: 4.8 min
- half-life at 1 µM [5]: 187 min
- Emax [6]: 94%
- Activity [7]: inactive
- AUC(0-t) at 24 h [8]: 2820 ng·h/mL
- inhibition in vivo at 5 mg/kg [9]: 24%
- k el at 1 h, 1 µM [10]: 0.0007 s⁻¹
- Activity [11]: inactive
- Activity [12]: Dose-Dependent Effect
- IC50 [13]: > 20000 nM
- AUC(0-inf) [14]: 2360 ng·h/mL
- IC50 [15]: 490 nM
- microsomal CLint at 1 µM [16]: 17.8 µL/min/mg
- Activity [17]: Dose-Dependent Effect
- half-life at 1 µM [18]: 16.5 min
- inhibition in vivo at 5 mg/kg [19]: 88%
- MRT last at 24 h [20]: 17.4 min
- Activity [21]: Tde
- Tmax [22]: 120 min
- MRT inf [23]: 173 min
- DC50 [24]: 250 nM
- inhibition in vivo at 10 mg/kg [25]: 34%
- Cmax [26]: 656 ng/mL
- MRT inf [27]: 20.4 min
- Activity [28]: Active
- Activity [29]: Active
- microsomal CLint at 1 µM [30]: 7.4 µL/min/mg
- Activity [31]: 83%
- AUC(0-inf) [32]: 2830 ng·h/mL
